Measurements from article PMC4688878 (Chemical Research in Toxicology, 2015).

Molecular target: T1, porcine liver COMT (Sus scrofa, UniProt Q99028)
T1 sequence (Q99028 1-186): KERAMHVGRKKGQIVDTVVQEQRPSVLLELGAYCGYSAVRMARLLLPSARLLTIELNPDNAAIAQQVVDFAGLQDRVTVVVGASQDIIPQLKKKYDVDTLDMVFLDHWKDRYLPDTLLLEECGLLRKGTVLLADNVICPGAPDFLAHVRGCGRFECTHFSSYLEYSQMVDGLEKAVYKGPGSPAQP
Test: Catechol O-methyltransferase activity assay
Format: biochemical
Details: 1 mM sinefungin; 1 mM SAM; 2 h at 37 °C

## Nc1ncnc2c1ncn2[C@@H]1O[C@H](C[C@@H](N)CC[C@H](N)C(=O)O)[C@@H](O)[C@H]1O [singfungin, sinefungin]
  inhibition of COMT activity: significantly inhibited
